According to patent US12655116B2, “Substituted isophthalic acid diamides” (Bayer Aktiengesellschaft, priority 2020, dated 2026):

Assays:
AMARE = test: Pre-emergence herbicidal action against AMARE; assay type: in vivo, Amaranthus retroflexus
Outline: (§1)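 Pre-emergence soil-surface spray of formulated compound (WP or EC; 600 to 800 l/ha; 0.2% wetting agent) over seeds sown in sandy loam. After 3 weeks under greenhouse conditions, damage is estimated visually in percent against untreated plants.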

AVEFA [1] = test: Pre-emergence herbicidal action against AVEFA; assay type: in vivo, Avena fatua; conditions: 80 g/ha, pre-emergence
Outline: as §1

MATIN [2] = test: Pre-emergence herbicidal action against MATIN; assay type: in vivo, Matricaria inodora
Outline: as §1

VIOTR = test: Pre-emergence herbicidal action against VIOTR; assay type: in vivo, Viola tricolor
Outline: as §1

PHBPU [3] = test: Pre-emergence herbicidal action against PHBPU; assay type: in vivo, Pharbitis purpurea; conditions: dosage 80 g/ha
Outline: as §1

PHBPU [4] = test: Post-emergence herbicidal action against PHBPU; assay type: in vivo, Pharbitis purpurea; conditions: dosage 20 g/ha
Outline: (§2)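 Spray, one-leaf stage: WP or EC compound in water, 600–800 l/ha, 0.2% wetting agent. Plants held about 3 weeks in the greenhouse, then visually rated in percent of kill compared with untreated controls.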

SETVI [5] = test: Pre-emergence herbicidal action against SETVI; assay type: in vivo, Setaria viridis
Outline: as §1

ABUTH [6] = test: Pre-emergence herbicidal action against ABUTH; assay type: in vivo, Abutilon theophrasti; conditions: for Pre-emergence action against ABUTH (herbicidal activity): 80 g/ha, scored visually after 3 weeks vs untreated controls (100% = plants have died, 0% = like control plants); for Pre-emergence action against ABUTH (herbicidal activity in percent): dosage 20 g/ha, scored visually after 3 weeks vs untreated controls, 100% = plants have died, 0% = like control plants
Outline: as §1

ABUTH [7] = test: Post-emergence herbicidal action against ABUTH; assay type: in vivo, Abutilon theophrasti; conditions: visual assessment about 3 weeks after treatment vs untreated controls
Outline: as §2

ALOMY [8] = test: Post-emergence herbicidal action against ALOMY; assay type: in vivo, Alopecurus myosuroides; conditions: dosage 20 g/ha, visual assessment about 3 weeks after treatment vs untreated controls
Outline: as §2

ECHCG [9] = test: Pre-emergence herbicidal action against ECHCG; assay type: in vivo, Echinochloa crus-galli
Outline: as §1

AVEFA [10] = test: Post-emergence herbicidal action against AVEFA; assay type: in vivo, Avena fatua; conditions: 20 g/ha, visual assessment about 3 weeks after treatment, 100% = plants have died, 0% = like control plants
Procedure: Seeds of monocotyledonous and dicotyledonous weed and crop plants are laid out in sandy loam soil in wood-fiber pots, covered with soil and cultivated in a greenhouse under good growth conditions. 2 to 3 weeks after sowing, the test plants are treated at the one-leaf stage. The compounds of the invention, formulated in the form of wettable powders (WP) or as emulsion concentrates (EC), are then sprayed onto the green parts of the plants in the form of an aqueous suspension or emulsion at a water application rate equivalent to 600 to 800 l/ha, with addition of 0.2% wetting agent. After the test plants have been left to stand in the greenhouse under optimal growth conditions for about 3 weeks, the action of the preparations is assessed visually in comparison to untreated controls (herbicidal action in percent (%): 100% activity=the plants have died, 0% activity=like control plants). […] The tables below illustrate, in an illustrative manner, the post-emergence herbicidal action of the compounds of the invention, the herbicidal activity being stated in percent.

DIGSA = test: Pre-emergence herbicidal action against DIGSA; assay type: in vivo, Digitaria sanguinalis
Outline: as §1

ECHCG [11] = test: Post-emergence herbicidal action against ECHCG; assay type: in vivo, Echinochloa crus-galli
Outline: as §2

ALOMY [12] = test: Pre-emergence herbicidal action against ALOMY; assay type: in vivo, Alopecurus myosuroides; conditions: 80 g/ha, pre-emergence, scored visually after 3 weeks vs untreated controls (100% = plants have died, 0% = like control plants)
Outline: as §1

VERPE [13] = test: Post-emergence herbicidal action against VERPE; assay type: in vivo, Veronica persica; conditions: 20 g/ha
Outline: as §2

VERPE [14] = test: Pre-emergence herbicidal action against VERPE; assay type: in vivo, Veronica persica; conditions: dosage 80 g/ha
Outline: as §1

SETVI [15] = test: Post-emergence herbicidal action against SETVI; assay type: in vivo, Setaria viridis; conditions: dosage 20 g/ha
Outline: as §2

MATIN [16] = test: Post-emergence herbicidal action against MATIN; assay type: in vivo, Matricaria inodora; conditions: dosage 20 g/ha
Outline: as §2

[17] = 20 g/ha, scored visually after 3 weeks vs untreated controls, 100% = plants have died, 0% = like control plants
[18] = 80 g/ha, scored visually after 3 weeks vs untreated controls (100% = plants have died, 0% = like control plants)

Row | Compound | Pre-emergence action against AMARE in % (AMARE; [17]) [%] | Pre-emergence action against AMARE in % (AMARE; [18]) [%] | Pre-emergence action against AVEFA in % (AVEFA [1]) [%] | Pre-emergence action against MATIN in % (MATIN [2]; dosage 20 g/ha) [%] | Pre-emergence action against MATIN in % (MATIN [2]; dosage 80 g/ha) [%] | Pre-emergence action against VIOTR in % (VIOTR; dosage 20 g/ha) [%] | Pre-emergence action against VIOTR in % (VIOTR; dosage 80 g/ha) [%] | Pre-emergence action against PHBPU in % (PHBPU [3]) [%] | Post-emergence action against PHBPU in % (PHBPU [4]) [%] | Pre-emergence action against SETVI in % (SETVI [5]; dosage 80 g/ha) [%] | Pre-emergence action against ABUTH (herbicidal activity) (ABUTH [6]) [%] | Pre-emergence action against ABUTH (herbicidal activity in percent) (ABUTH [6]) [%] | Post-emergence action against ABUTH in % (ABUTH [7]; dosage 5 g/ha) [%] | Post-emergence action against ABUTH in % (ABUTH [7]; dosage 20 g/ha) [%] | Pre-emergence action against ECHCG in % (ECHCG [9]; 80 g/ha) [%] | Post-emergence action at 20 g/ha against AVEFA in % (AVEFA [10]) [%] | Pre-emergence action against DIGSA in % (DIGSA; dosage 20 g/ha) [%] | Pre-emergence action against DIGSA in % (DIGSA; dosage 80 g/ha) [%] | Post-emergence action against ECHCG in % (ECHCG [11]; dosage 20 g/ha) [%] | Pre-emergence action against ALOMY (herbicidal activity) (ALOMY [12]) [%] | other results
1 | Cc1c(C(=O)Nc2nnnn2C)ccc(C(F)(F)F)c1C(=O)NCC(F)F [Example 1-30] | 100 | 100 | 100 | 100 | 100 | 100 | 100 | 100 | 80 | 100 | 100 | 100 | 80 | 80 | 80 | 80 | 100 | 100 | 80 | 80 | Pre-emergence action against SETVI in % (SETVI [5]; dosage 20 g/ha): 90%; Post-emergence action against ALOMY in % (ALOMY [8]): 80%
2 | Cc1c(C(=O)Nc2nnnn2C)ccc(C(F)(F)F)c1C(=O)NC(C)C1CC1 (stereo not shown) [Example 1-31] | 100 | 100 | 90 | 100 | 100 | 100 | 100 | 80 | 80 | 100 | 100 | 100 | 80 | 80 | 100 | 90 | 100 | 100 | 80 | 90 | Post-emergence action against VERPE in % (VERPE [13]): 80%; Pre-emergence action against VERPE in % (VERPE [14]): 100%; Pre-emergence action against ECHCG in % (ECHCG [9]; 20 g/ha): 90%; Post-emergence action against ECHCG in % (ECHCG [11]; dosage 5 g/ha): 80%
3 | CCn1nnnc1NC(=O)c1ccc(C(F)(F)F)c(C(=O)NCC(F)(F)F)c1C [Example 2-29] | 100 | 100 | 100 | 100 | 100 | 100 | 100 | 80 | 80 | 100 | 100 | 100 |  | 80 | 100 | 80 | 90 | 100 | 80 | 80 | Post-emergence action against SETVI in % (SETVI [15]): 80%; Post-emergence action against MATIN in % (MATIN [16]): 80%
